Reference: patent publication US12264156B2, “Compounds and pharmaceutical compositions thereof for the treatment of diseases” (GALAPAGOS NV, priority 2018, dated 2025)
pIC50: −log10 of the molar value.

Experiments:
[1] = molecular target: T1, SIK1 (Homo sapiens, UniProt P57059); test: ADP-Glo kinase assay, SIK1; type: biochemical; details: ADP-Glo SIK kinase assay
T1 construct: purchased Carna Biosciences 02-131
Outline: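 Wells with 1% DMSO or 10 μM staurosporine (final) define the control window. The kinase reaction with substrate and ATP runs 120 min at RT, followed by ADP-Glo detection: ATP depletion (40 min) and ADP-derived luminescence (30 min).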

[2] = molecular target: T2, SIK2 (Homo sapiens, UniProt Q9H0K1); test: ADP-Glo kinase assay, SIK2; type: biochemical; details: ADP-Glo SIK kinase assay
T2 construct: purchased ThermoFisher Scientific PV4792
T2 sequence (Q9H0K1 whole entry): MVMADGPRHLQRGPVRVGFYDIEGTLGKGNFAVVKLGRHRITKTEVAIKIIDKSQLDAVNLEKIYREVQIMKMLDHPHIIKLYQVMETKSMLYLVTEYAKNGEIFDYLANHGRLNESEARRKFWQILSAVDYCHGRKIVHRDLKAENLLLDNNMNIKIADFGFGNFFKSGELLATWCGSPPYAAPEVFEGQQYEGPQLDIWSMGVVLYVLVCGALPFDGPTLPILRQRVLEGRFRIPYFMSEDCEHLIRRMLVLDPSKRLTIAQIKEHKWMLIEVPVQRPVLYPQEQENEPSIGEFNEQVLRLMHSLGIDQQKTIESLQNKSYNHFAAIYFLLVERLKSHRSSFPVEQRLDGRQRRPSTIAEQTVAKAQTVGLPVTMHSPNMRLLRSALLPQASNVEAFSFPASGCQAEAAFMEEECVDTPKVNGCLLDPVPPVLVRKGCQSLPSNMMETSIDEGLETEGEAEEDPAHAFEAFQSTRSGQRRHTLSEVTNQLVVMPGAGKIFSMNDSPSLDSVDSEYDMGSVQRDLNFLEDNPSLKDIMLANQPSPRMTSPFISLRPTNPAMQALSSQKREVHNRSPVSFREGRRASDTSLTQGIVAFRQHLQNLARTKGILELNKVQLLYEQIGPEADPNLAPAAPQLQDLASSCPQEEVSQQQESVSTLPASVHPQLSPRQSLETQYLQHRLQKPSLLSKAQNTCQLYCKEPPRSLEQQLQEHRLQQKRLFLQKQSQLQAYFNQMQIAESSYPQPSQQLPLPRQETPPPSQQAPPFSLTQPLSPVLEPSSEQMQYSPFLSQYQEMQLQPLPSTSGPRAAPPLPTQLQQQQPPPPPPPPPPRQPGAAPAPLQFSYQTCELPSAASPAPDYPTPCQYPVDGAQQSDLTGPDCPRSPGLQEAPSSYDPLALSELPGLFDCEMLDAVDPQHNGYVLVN
Outline: (§1)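 Enzyme–substrate mix was started with ATP and incubated 120 min at RT. ADP formed was quantified by ADP-Glo: 40 min ATP depletion, then 30 min detection reagent converting ADP to ATP for luciferase luminescence, which rises with kinase activity. Controls: 1% DMSO and 10 μM staurosporine (final).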

[3] = molecular target: T3, SIK3 (Homo sapiens, UniProt Q9Y2K2); test: ADP-Glo kinase assay, SIK3; type: biochemical; details: ADP-Glo SIK kinase assay
T3 construct: purchased SignalChem S12-11G-100
T3 sequence (Q9Y2K2 whole entry): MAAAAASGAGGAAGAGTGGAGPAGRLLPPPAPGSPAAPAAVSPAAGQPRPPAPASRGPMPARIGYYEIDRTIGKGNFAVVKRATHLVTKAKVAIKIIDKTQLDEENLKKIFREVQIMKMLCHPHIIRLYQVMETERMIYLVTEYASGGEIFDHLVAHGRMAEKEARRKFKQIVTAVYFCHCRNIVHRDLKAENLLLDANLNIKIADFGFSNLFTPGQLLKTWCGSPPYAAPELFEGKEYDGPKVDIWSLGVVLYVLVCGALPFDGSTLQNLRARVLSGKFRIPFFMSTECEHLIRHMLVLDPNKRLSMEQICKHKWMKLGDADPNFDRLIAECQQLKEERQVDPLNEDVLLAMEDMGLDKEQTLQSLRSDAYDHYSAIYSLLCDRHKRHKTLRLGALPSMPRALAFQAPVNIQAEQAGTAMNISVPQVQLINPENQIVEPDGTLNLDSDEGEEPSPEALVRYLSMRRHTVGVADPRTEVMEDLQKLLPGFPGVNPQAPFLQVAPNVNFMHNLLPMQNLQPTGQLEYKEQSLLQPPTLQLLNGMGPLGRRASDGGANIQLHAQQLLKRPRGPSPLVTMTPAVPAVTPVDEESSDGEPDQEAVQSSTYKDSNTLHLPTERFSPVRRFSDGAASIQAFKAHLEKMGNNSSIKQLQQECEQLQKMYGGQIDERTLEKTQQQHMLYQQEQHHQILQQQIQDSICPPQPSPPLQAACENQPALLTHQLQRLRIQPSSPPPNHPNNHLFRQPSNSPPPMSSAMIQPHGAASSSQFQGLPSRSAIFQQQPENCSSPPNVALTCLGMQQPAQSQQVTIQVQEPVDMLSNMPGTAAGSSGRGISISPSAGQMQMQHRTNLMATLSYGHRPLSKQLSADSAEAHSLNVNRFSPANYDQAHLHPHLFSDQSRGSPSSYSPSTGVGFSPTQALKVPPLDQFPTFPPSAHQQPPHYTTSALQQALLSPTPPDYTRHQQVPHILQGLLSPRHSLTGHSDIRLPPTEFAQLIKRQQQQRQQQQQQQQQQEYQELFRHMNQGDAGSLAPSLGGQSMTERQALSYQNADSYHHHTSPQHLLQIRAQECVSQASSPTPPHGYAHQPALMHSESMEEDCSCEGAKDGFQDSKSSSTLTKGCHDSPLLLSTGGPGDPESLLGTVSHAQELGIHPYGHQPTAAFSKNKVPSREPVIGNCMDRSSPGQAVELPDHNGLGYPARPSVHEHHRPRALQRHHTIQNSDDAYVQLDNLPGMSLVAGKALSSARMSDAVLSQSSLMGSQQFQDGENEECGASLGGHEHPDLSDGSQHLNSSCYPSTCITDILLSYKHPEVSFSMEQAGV
Outline: as §1

[4] = system: LPS triggered IL-10 secretion in monocyte-derived macrophages (MdM); test: MdM assay: LPS-triggered IL-10 (ELISA); type: cell-based, human; details: LPS 200 ng/mL, supernatant after 2 h, maximal fold change vs LPS only
Protocol: SIK inhibition inhibits TNFα and increases IL-10 release in LPS triggered monocyte-derived macrophages (MdM) and dendritic […] al. 2012; Sundberg et al. 2014; Ozanne et al. 2015). This assay evaluates illustrative compounds of the invention for their inhibition of LPS-induced TNFα and LPS triggered IL-10 secretion in monocyte-derived macrophages. PBMCs are isolated from human blood samples (buffycoats). The buffy coat is aseptically transferred into a 50 mL Falcon tube, and diluted 1/2 in PBS. Falcon tubes are filled with 20 mL LymphoprepTM, on top of which 25 mL of the buffy coat is carefully added, tubes are centrifuged for 35 min at 400 g in temperature controlled centrifuge, without brake, at 25° C. PBMCs are aspirated from the white interface layer between sample and LymphoprepTM. PBMCs are washed five times in PBS. Cells are resuspended in RPMI 1640 complete medium supplemented with 10% FBS, 1% P/S, and cell density is determined using a hematologic analyzer (Sysmex XS-500i). PBMCs are centrifuged at 300×g for 10 min and resuspended at a density of 1.0*10^7 cells/80 μL Miltenyi buffer (PBS, pH 7.4, 1% FBS, 2 mM EDTA). Starting from this point of the protocol all steps are performed on ice. 20 μL of CD14+ micro-beads are added per 1.0*10^7 cells, the tube is mixed and incubated for 15 min in the fridge at 4° C. Cell suspension volume is adjusted to total volume of 100 mL using Miltenyi buffer, mixed gently and subsequently centrifuged for 10 min at 300×g. Supernantant is discarded and cell pellet is resuspended in 12 mL of Miltenyi buffer. Four LS columns are placed in the MACS Separator (magnet) from Miltenyi Biotec, and are prewet by rinsing with 3 mL of MACS buffer per column. Three mL of cell suspension is added onto the column (max 1*10^8 of labelled cells/column), and columns are subsequently washed 3 times with 3 mL of Miltenyi buffer. The columns are removed from the magnets, and 5 mL of Miltenyi buffer are added to the column to flush out the CD14+ fraction by pushing the plunger into the column. The flushed fractions are collected in a fresh 50 mL Falcon and volume is adjusted to 30 mL using Miltenyi buffer, cells are centrifuged for 10 min at 300×g. The obtained cell pellet is resuspended in 10 mL RPMI w/o FBS, and cell density is determined using a hematologic analyser (Sysmex XS-500i). 100 000 cells are seeded per well of a 96-well plate for differentiation to MdM in RPMI 1640 medium supplemented with 10% FBS, 1% P/S and 100 ng/mL rhM-CSF. On day 5 the medium is refreshed with 100 μL RPMI 1640 medium supplemented with 10% FBS, 1% P/S and 100 ng/mL rhM-CSF. On day 10, MdMs are triggered and compound is added. A compound dilution plate is made in 100% DMSO by 3-fold dilution of 10 mM stock solution. An intermediate dilution plate (10× final concentration) is made by diluting the compound dilution plate 50-fold in RPMI medium. Medium is carefully removed from cell plates using multichannel pipette, and replaced by 80 μL fresh medium. 10 μL of the 10× final concentration compound is added to the cells and incubated for 1 hour at 37° C. before addition of trigger. No trigger conditions/trigger conditions are spiked with equal final DMSO concentrations of 0.2% DMSO. 10 μL of 10×LPS (final conc. 200 ng/mL) solution are added to all wells except for the 'no trigger wells' where 10 μL medium is added. Supernatant is collected after 2 h (IL-10 determination) and after 20 h (TNFα determination) of LPS triggering. […]

T1 sequence (P57059 whole entry): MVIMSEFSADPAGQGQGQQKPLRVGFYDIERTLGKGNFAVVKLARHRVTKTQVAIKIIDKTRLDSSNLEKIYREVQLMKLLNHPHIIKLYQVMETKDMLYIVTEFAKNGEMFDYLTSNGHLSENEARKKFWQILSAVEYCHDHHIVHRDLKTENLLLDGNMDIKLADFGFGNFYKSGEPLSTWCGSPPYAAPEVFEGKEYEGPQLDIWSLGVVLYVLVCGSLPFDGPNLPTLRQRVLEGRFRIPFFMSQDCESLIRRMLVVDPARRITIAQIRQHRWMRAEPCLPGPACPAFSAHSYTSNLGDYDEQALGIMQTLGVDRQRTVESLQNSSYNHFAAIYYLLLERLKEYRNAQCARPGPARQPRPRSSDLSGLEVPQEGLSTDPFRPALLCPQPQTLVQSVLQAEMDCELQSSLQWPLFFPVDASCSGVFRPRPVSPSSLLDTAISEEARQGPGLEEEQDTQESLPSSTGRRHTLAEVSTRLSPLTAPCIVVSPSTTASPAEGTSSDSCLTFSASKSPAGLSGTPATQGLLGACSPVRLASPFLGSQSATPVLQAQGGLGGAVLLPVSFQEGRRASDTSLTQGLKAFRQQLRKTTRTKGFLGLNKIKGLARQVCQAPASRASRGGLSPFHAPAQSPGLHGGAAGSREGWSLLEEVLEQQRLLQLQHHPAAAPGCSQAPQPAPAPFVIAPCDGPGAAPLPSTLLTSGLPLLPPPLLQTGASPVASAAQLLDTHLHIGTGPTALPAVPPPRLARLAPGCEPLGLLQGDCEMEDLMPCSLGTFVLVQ

pIC50 [1] | pIC50 [2] | pIC50 [3] | Structure (SMILES) | IL-10 FCmax median [4]
6.30 to 7.00 | 8.00 to 11.00 | 8.00 to 11.00 | COc1cc(-c2cnc3cc(OCC4CN(C)C4)ccn23)cc2c1C(=O)N(CC(F)(F)F)CC2 [compound 39, 8-methoxy-6-[7-[(1-methylazetidin-3-yl)methoxy]imidazo[1,2-a]pyridin-3-yl]-2-(2,2,2-trifluoroethyl)-3,4-dihydro isoquinolin-1-one] | ++ (>1.5-4.5)
7.00 to 8.00 | 8.00 to 11.00 | 8.00 to 11.00 | COc1cc(-c2cnc3cc(OCCN4CCOC[C@H]4C)ccn23)cc(OC(F)F)c1C(=O)NC1CC1 [compound 234, N-cyclopropyl-2-(difluoromethoxy)-6-methoxy-4-[7-[2-[(3R)-3-methylmorpholin-4-yl]ethoxy]imidazo[1,2-a]pyridin-3-yl]benzamide] | ++ (>1.5-4.5)
6.30 to 7.00 | 8.00 to 11.00 | 8.00 to 11.00 | CCN(CC)CCOc1ccn2c(-c3cc(OC)c(C(=O)NC4CC4)c(OC(F)F)c3)cnc2c1 [compound 107, N-cyclopropyl-4-[7-[2-(diethylamino)ethoxy]imidazo[1,2-a]pyridin-3-yl]-2-(difluoromethoxy)-6-methoxy-benzamide] | + (≤1.5)
6.30 to 7.00 | 8.00 to 11.00 | 8.00 to 11.00 | COc1cc(-c2cnc3cc(OCCN4CCOCC4)ccn23)cc2c1C(=O)N(CC(F)F)CC2 [compound 218, 2-(2,2-difluoroethyl)-8-methoxy-6-[7-(2-morpholinoethoxy)imidazo [1,2-a]pyridin-3-yl]-3,4-dihydroisoquinolin-1-one] | ++ (>1.5-4.5)
< 6.30 | 8.00 to 11.00 | 8.00 to 11.00 | COc1cc(-c2cnc3cc(OC[C@H]4CCCN4C)ccn23)cc2c1C(=O)N(CC(F)(F)F)CC2 [compound 124, 8-methoxy-6-[7-[[(2R)-1-methylpyrrolidin-2-yl]methoxy]imidazo[1,2-a]pyridin-3-yl]-2-(2,2,2-trifluoroethyl)-3,4-dihydroisoquinolin-1-one] | ++ (>1.5-4.5)
6.30 to 7.00 | 8.00 to 11.00 | 8.00 to 11.00 | COc1cc(-c2cnc3cc(OC[C@H]4COCCO4)ccn23)cc2c1C(=O)N(CC(F)F)CC2 [compound 219, 2-(2,2-difluoroethyl)-6-[7-[[(2R)-1,4-dioxan-2-yl]methoxy]imidazo[1,2-a]pyridin-3-yl]-8-methoxy-3,4-dihydroisoquinolin-1-one] | ++ (>1.5-4.5)
7.00 to 8.00 | 8.00 to 11.00 | 8.00 to 11.00 | COc1cc(-c2cnc3cc(OCC(O)CN4CCCCC4)ccn23)cc(OC(F)F)c1C(=O)NC1CC1 (centres unmarked) [Cpd 321, N-cyclopropyl-2-(difluoromethoxy)-4-[7-[2-hydroxy-3-(1-piperidyl)propoxy]imidazo [1,2-a]pyridin-3-yl]-6-methoxy-benzamide] | ++ (>1.5-4.5)
< 6.30 | 8.00 to 11.00 | 8.00 to 11.00 | COc1cc(-c2cnc3cc(OCCN4CCCC4)ccn23)cc2c1C(=O)N(CC(F)(F)F)CC2 [compound 123, 8-methoxy-6-[7-(2-pyrrolidin-1-ylethoxy)imidazo[1,2-a]pyridin-3-yl]-2-(2,2,2-trifluoroethyl)-3,4-dihydroisoquinolin-1-one] | ++ (>1.5-4.5)
< 6.30 | 8.00 to 11.00 | 8.00 to 11.00 | COc1cc(-c2cnc3cc(OCCN4CCCCC4)ccn23)cc2c1C(=O)N(CC(F)(F)F)CC2 [compound 40, 8-methoxy-6-[7-[2-(1-piperidyl)ethoxy]imidazo [1,2-a]pyridin-3-yl]-2-(2,2,2-trifluoroethyl)-3,4-dihydroisoquinolin-1-one] | ++ (>1.5-4.5)
7.00 to 8.00 | 8.00 to 11.00 | 8.00 to 11.00 | CNCCOc1ccn2c(-c3cc(OC)c(C(=O)NC4CC4)c(OC(F)F)c3)cnc2c1 [compound 117, N-cyclopropyl-2-(difluoromethoxy)-6-methoxy-4-[7-[2-(methylamino)ethoxy]imidazo[1,2-a]pyridin-3-yl]benzamide] | ++ (>1.5-4.5)
6.30 to 7.00 | 8.00 to 11.00 | 8.00 to 11.00 | CCN(CC)CCOc1ccn2c(-c3cc4c(c(OC)c3)C(=O)N(CC(F)(F)F)CC4)cnc2c1 [compound 128, 6-[7-[2-(diethylamino)ethoxy]imidazo[1,2-a]pyridin-3-yl]-8-methoxy-2-(2,2,2-trifluoroethyl)-3,4-dihydroisoquinolin-1-one] | ++ (>1.5-4.5)
7.00 to 8.00 | 8.00 to 11.00 | 8.00 to 11.00 | COc1cc(-c2cnc3cc(OCCCN4CC(O)C4)ccn23)cc(OC(F)F)c1C(=O)NC1CC1 [Cpd 286, N-cyclopropyl-2-(difluoromethoxy)-4-[7-[3-(3-hydroxyazetidin-1-yl)propoxy]imidazo[1,2-a]pyridin-3-yl]-6-methoxy-benzamide] | ++ (>1.5-4.5)
7.00 to 8.00 | 8.00 to 11.00 | 8.00 to 11.00 | COc1cc(-c2cnc3cc(OCC4CN(C)C4)ccn23)cc(OC(F)F)c1C(=O)NC1CC1 [Cpd 14, N-cyclopropyl-2-(difluoromethoxy)-6-methoxy-4-[7-[(1-methylazetidin-3-yl)methoxy]imidazo[1,2-a]pyridin-3-yl]benzamide] | ++ (>1.5-4.5)
6.30 to 7.00 | 8.00 to 11.00 | 8.00 to 11.00 | COc1cc(-c2cnc3cc(OCc4nncn4C)ccn23)cc(OC(F)F)c1C(=O)NC1CC1 [compound 227, N-cyclopropyl-2-(difluoromethoxy)-6-methoxy-4-[7-[(4-methyl-1,2,4-triazol-3-yl)methoxy]imidazo[1,2-a]pyridin-3-yl]benzamide] | ++ (>1.5-4.5)
7.00 to 8.00 | 8.00 to 11.00 | 8.00 to 11.00 | COc1cc(-c2cnc3cc(OCCCN(C)C)ccn23)cc(OC(F)F)c1C(=O)NC1CC1 [Cpd 13] | ++ (>1.5-4.5)
7.00 to 8.00 | 8.00 to 11.00 | 8.00 to 11.00 | COc1cc(-c2cnc3cc(OCCC4CCCN4C)ccn23)cc(OC(F)F)c1C(=O)NC1CC1 (centres unmarked) [compound 17, N-cyclopropyl-2-(difluoromethoxy)-6-methoxy-4-[7-[2-(1-methylpyrrolidin-2-yl)ethoxy]imidazo[1,2-a]pyridin-3-yl]benzamide] | ++ (>1.5-4.5)
6.30 to 7.00 | 8.00 to 11.00 | 8.00 to 11.00 | COc1cc(-c2cnc3cc(OCCC4CCCN4C)ccn23)cc2c1C(=O)N(CC(F)(F)F)CC2 (centres unmarked) [Cpd 122, 8-methoxy-6-[7-[2-(1-methylpyrrolidin-2-yl)ethoxy]imidazo[1,2-a]pyridin-3-yl]-2-(2,2,2-trifluoroethyl)-3,4-dihydroisoquinolin-1-one] | ++ (>1.5-4.5)
